In US6426197B1, “Polynucleotides encoding a human potassium channel” (SmithKline Beecham, P.L.C., priority 1998, dated 2002):

Molecular target: T1, h-TRAAK (Homo sapiens, UniProt Q9NYG8)
T1 construct: expressed in transfected cells; host or cells: HEK 293
T1 sequence (Q9NYG8 1-393): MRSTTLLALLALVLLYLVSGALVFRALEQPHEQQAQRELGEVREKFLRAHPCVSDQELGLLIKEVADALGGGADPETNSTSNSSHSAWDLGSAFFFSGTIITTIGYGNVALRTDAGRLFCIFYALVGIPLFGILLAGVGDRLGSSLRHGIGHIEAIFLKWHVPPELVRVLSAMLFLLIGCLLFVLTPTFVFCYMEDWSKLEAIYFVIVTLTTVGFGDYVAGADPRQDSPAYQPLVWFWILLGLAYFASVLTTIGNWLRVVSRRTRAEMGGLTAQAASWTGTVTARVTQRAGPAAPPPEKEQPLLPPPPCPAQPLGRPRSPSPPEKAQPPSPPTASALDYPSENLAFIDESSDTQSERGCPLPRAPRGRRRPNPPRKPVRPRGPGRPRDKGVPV
Test: Whole cell patch clamp recordings in HEK 293 cells transiently transfected with h-TRAAK
Format: cell-based
Excerpt: Electrophysiological Recordings in HEK293 Cells
For whole cell patch clamp recordings cells were placed on the stage of an inverted microscope and continuously superfused with a solution containing, in mM: NaCl 150, KCl 5, HEPES 10, CaCl2 1 and MgCl2 3; pH with NaOH. The patch pipette solution contained in mM: KCl 150, HEPES 10, MgCl2 3 and EGTA 5; pH7.2 with KOH. When cells were voltage clamped at a test potential of −80 mV depolarising pulses elicited rapidly activating, non-inactivating outward currents. At a test potential of +10 mV these currents were considerably greater in amplitude, 300.4 pA±92.9 (n=5) than those recorded from untransfected wild type HEK 293 cells, 94.8 pA +12.6 (n=15). h-TRAAK-mediated currents were potentiated by arachidonic acid over a voltage range from −140 to +60 mV.

SMILES: CCCCC/C=C\C/C=C\C/C=C\C/C=C\CCCC(=O)O [arachidonic acid]
- fold increase in h-TRAAK-mediated current (10 μM arachidonic acid, test potential of +10 mV): 7.9 ±3.0 fold
- effect on h-TRAAK-mediated currents (voltage range from −140 to +60 mV): potentiated
